From PubChem BioAssay (NCI)
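Abbreviation: GI50, concentration required for 50% inhibition of growth. TGI is the concentration that stops growth completely.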

Key:
Assay in all cases: DTP human tumour cell line panel, 384-well format
[1] = tested on: MOLT-4 leukemia
[2] = tested on: NCI-H226 lung
[3] = tested on: COLO 205 colon
[4] = tested on: MCF7 breast
[5] = tested on: HOP-62 NSCLC
[6] = tested on: HT29 colon
[7] = tested on: CAKI-1 renal
[8] = tested on: NCI-H322M lung
[9] = tested on: SF-539 CNS
[10] = tested on: UO-31 renal
[11] = tested on: OVCAR-4 ovarian
[12] = tested on: IGROV1 ovarian
[13] = tested on: BT-549 breast
[14] = tested on: T-47D breast
[15] = tested on: A549 NSCLC
[16] = tested on: LOX IMVI melanoma
[17] = tested on: PC-3 prostate
[18] = tested on: EKVX NSCLC
[19] = tested on: HL-60(TB) leukemia
[20] = tested on: SF-295 CNS
[21] = tested on: U251 glioblastoma
[22] = tested on: KM12 colon
[23] = tested on: MDA-MB-435 melanoma
[24] = tested on: K-562 leukemia
[25] = tested on: NCI-H460 NSCLC
[26] = tested on: HOP-92 NSCLC
[27] = tested on: UACC-257 melanoma
[28] = tested on: SNB-75 CNS
[29] = tested on: MDA-MB-468 breast

For CN(C[C@@H]1COCCO1)S(=O)(=O)Nc1ccc2ccc3ncc(-c4cnn(C)c4)cc3c(=O)c2c1, the GI50 [1] was 1.58 µM, the TGI [1] was 3.03 µM and the GI50 [2] was 1.77 µM. The TGI [2] was greater than 100 µM, the GI50 [3] was 24.4 µM and the TGI [3] was greater than 100 µM. It also gave a GI50 [4] of 5.9 µM, a TGI [4] greater than 100 µM and a GI50 [5] of 5.14 µM. It also gave a TGI [5] greater than 100 µM, a GI50 [6] of 14.4 µM and a TGI [6] greater than 100 µM. The GI50 [7] was 1.89 µM, the TGI [7] was greater than 100 µM and the GI50 [8] was 4.99 µM. The TGI [8] was greater than 100 µM, the GI50 [9] was 1.63 µM and the TGI [9] was 15.2 µM. For the same compound, the GI50 [10] was 8.88 µM, the TGI [10] was greater than 100 µM and the GI50 [11] was 3.34 µM. The TGI [11] was 61 µM, the GI50 [12] was 2.13 µM and the TGI [12] was 9 µM. It also gave a GI50 [13] of 2.1 µM, a TGI [13] of 45.5 µM and a GI50 [14] of 3.5 µM. For the same compound, the TGI [14] was 59.5 µM, the GI50 [15] was 8.08 µM and the TGI [15] was greater than 100 µM. For the same compound, the GI50 [16] was 5.53 µM, the TGI [16] was greater than 100 µM and the GI50 [17] was 5.71 µM. It also gave a TGI [17] greater than 100 µM, a GI50 [18] of 16.2 µM and a TGI [18] greater than 100 µM. For the same compound, the GI50 [19] was 3.32 µM, the TGI [19] was 21 µM and the GI50 [20] was 1.12 µM. It also gave a TGI [20] of 10.9 µM, a GI50 [21] of 6.34 µM and a TGI [21] greater than 100 µM. For the same compound, the GI50 [22] was 0.31 µM, the TGI [22] was greater than 100 µM and the GI50 [23] was 21.6 µM. It also gave a TGI [23] greater than 100 µM, a GI50 [24] of 6.92 µM and a TGI [24] greater than 100 µM. It also gave a GI50 [25] of 3.45 µM, a TGI [25] of 62.1 µM and a GI50 [26] of 2.08 µM. It also gave a TGI [26] of 10.8 µM, a GI50 [27] greater than 100 µM and a TGI [27] greater than 100 µM. It also gave a GI50 [28] of 2.18 µM, a TGI [28] of 21.5 µM and a GI50 [29] of 1.63 µM. It also gave a TGI [29] of 5.2 µM.
